Experimental data reported in PMC4619459, “Metabolism of β-valine via a CoA-dependent ammonia lyase pathway” (Applied Microbiology and Biotechnology, 2015).

Assays:
Assay type in all cases: biochemical
BvaB1-His [1] = target: T1, BvaB1-His (Pseudomonas sp. SBV1, UniProt A0A0C4UTI5); experiment: UPLC-MS (m/z […]) and HPLC; settings: substrate made in situ by BvaA-His, not purified; 50 mM HEPES, 150 mM NaCl, 5 mM MgCl2, pH 8
T1 sequence (A0A0C4UTI5 1-253): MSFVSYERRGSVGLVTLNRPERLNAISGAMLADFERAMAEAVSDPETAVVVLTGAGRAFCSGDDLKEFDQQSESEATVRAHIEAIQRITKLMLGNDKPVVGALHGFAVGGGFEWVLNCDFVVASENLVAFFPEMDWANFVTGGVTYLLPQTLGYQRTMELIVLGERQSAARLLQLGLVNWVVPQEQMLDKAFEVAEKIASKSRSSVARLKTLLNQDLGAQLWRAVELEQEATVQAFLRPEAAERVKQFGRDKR

BvaB2-His [2] = target: T2, BvaB2-His (Pseudomonas sp. SBV1, UniProt A0A0C4USU5); experiment: UPLC-MS (m/z […]) and HPLC; settings: substrate made in situ by BvaA-His, not purified; 50 mM HEPES, 150 mM NaCl, 5 mM MgCl2, pH 8
T2 sequence (A0A0C4USU5 1-266): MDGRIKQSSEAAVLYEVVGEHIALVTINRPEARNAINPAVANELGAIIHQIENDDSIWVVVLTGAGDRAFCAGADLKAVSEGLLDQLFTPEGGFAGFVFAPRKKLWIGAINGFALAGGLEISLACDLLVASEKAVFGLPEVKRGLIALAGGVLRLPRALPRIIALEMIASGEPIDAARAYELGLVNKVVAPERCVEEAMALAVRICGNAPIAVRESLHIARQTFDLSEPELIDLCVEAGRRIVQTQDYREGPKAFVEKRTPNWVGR

BvaA-His [3] = target: T3, BvaA-His (Pseudomonas sp. SBV1, UniProt A0A0C4UT64); experiment: UPLC-MS of CoA adduct; HPLC of AMP formation; settings: 5 mM ATP, 2.5 mM CoA, 5 mM MgCl2, 50 mM HEPES, 150 mM NaCl, pH 8, 30 °C
T3 sequence (A0A0C4UT64 entry or part of it): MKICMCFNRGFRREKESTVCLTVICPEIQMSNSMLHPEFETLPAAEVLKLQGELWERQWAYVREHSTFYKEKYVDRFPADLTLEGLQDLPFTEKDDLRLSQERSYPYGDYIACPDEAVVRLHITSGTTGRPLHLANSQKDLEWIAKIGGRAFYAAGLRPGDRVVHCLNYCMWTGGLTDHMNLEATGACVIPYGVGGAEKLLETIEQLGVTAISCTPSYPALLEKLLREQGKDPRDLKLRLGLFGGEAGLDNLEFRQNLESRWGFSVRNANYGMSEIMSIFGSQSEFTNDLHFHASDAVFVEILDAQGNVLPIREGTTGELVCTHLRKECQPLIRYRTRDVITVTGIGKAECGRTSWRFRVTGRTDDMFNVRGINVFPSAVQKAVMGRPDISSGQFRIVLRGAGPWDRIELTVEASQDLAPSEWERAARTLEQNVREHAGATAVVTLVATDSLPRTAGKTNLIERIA

BvaB1-His [4] = target: T1, BvaB1-His; experiment: HPLC of substrate depletion; UPLC-MS; settings: substrate made in situ by BvaA-His, not purified; 50 mM HEPES, 150 mM NaCl, 5 mM MgCl2, pH 8
BvaB2-His [5] = target: T2, BvaB2-His; experiment: HPLC of substrate depletion; UPLC-MS; settings: substrate made in situ by BvaA-His, not purified; 50 mM HEPES, 150 mM NaCl, 5 mM MgCl2, pH 8
BvaA-His [6] = target: T3, BvaA-His; experiment: HPLC of AMP formation; settings: 2.5 mM β-valine, 2.5 mM CoA, 5 mM MgCl2, 50 mM HEPES, 150 mM NaCl, pH 8, 30 °C

CC(C)=CC(=O)SCCNC(=O)CCNC(=O)[C@H](O)C(C)(C)COP(=O)(O)OP(=O)(O)OC[C@H]1O[C@@H](n2cnc3c(N)ncnc32)[C@H](O)[C@@H]1OP(=O)(O)O [3-methyl-crotonyl-CoA]
UPLC-MS (m/z 849) and HPLC (BvaB1-His [1]): This parent ion was observed in a mixture containing either BvaB1-His or BvaB2-His | UPLC-MS (m/z 849) and HPLC (BvaB2-His [2]): This parent ion was observed in a mixture containing either BvaB1-His or BvaB2-His

CC(C)(N)CC(=O)O [β-valine]
UPLC-MS of CoA adduct; HPLC of AMP formation (BvaA-His [3]): both the β-valinyl-CoA and the AMP levels increased in time

CC(C)(N)CC(=O)SCCNC(=O)CCNC(=O)[C@H](O)C(C)(C)COP(=O)(O)OP(=O)(O)OC[C@H]1O[C@@H](n2cnc3c(N)ncnc32)[C@H](O)[C@@H]1OP(=O)(O)O [β-valinyl-CoA]
HPLC of substrate depletion; UPLC-MS (BvaB1-His [4]): both expected β-valinyl-CoA ammonia lyases are able to convert β-valinyl-CoA to 3-methyl-crotonyl-CoA | HPLC of substrate depletion; UPLC-MS (BvaB2-His [5]): both expected β-valinyl-CoA ammonia lyases are able to convert β-valinyl-CoA to 3-methyl-crotonyl-CoA

Nc1ncnc2c1ncn2[C@@H]1O[C@H](COP(=O)(O)OP(=O)(O)OP(=O)(O)O)[C@@H](O)[C@H]1O [ATP]
HPLC of AMP formation (BvaA-His [6]): able to convert β-valine to β-valinyl-CoA in an ATP- and CoA-dependent manner
